Results reported in US20250302973A1, “POLYMER CONJUGATES OF DRUGS WITH CENTRAL NERVOUS SYSTEM (CNS) EFFECTS AND […] BLOCKING ACTIVITY AND/OR IMMUNE SYSTEM […]” (UNIVERSITY OF PADOVA, priority 2022, published 2025).

Assays:
[1] = system: A-549 cells; assay: A-549 lung cells co-cultured 24 hours with THP-1-derived macrophages, mRNA expression of inflammatory cytokines; conditions: 1 μM; A-549 cells incubated (co-culture) with macrophages derived from THP-1 cells; effect only in presence of macrophages
[2] = system: C57BL6/J male mice; assay: Open field test, total locomotor activity as distance travelled; assay type: in vivo; conditions: intraperitoneal 0.3 mg/kg MK-801 or equivalent dose, test 10 min after injection, compared with vehicle, n=7 per group
Method: The present inventors used 7 C57BL6/J male (3-4 months old) mice per treatment group, keeping them in a temperature-controlled room (22° C.) on a 12:12 h light-dark cycle (light on at 7:00 AM) and fed a standard pellet diet and tap water ad libitum. Experimental mice were habituated to the testing room by transferring them to the behavioural room 30 min prior to beginning of the test. The open field test was conducted between 9:00 am and 4:00 pm. MK-801 and derivatives were dissolved in a vehicle composed by 0.9% NaCl physiological solution. Each mouse was singly placed at the corner of a grey-painted open field arena (40×40×30 cm) 10 min after the intraperitoneal injection (Volume of injection 0.1 mL) of either Vehicle, 0.3 mg/kg MK-801, or the equivalent dose of 0.3 mg/kg MK-801 of the PEG 4 MK-801, PEG 6 MK-801, PEG 8 MK-801 or PEG 10 MK-801 derivatives. Using an automated behavioral tracking system (Videotrack, View Point Life Science), we determined the total locomotor activity measured as distance travelled by the animal during the 10 min duration of the test.

| SMILES | mRNA expression of the inflammatory cytokine CCL-2 [1] | mRNA expression of the inflammatory cytokine IL-1β [1] | distance travelled by the mice during 10 min in the Open Field Test [2] |
| --- | --- | --- | --- |
| C[C@]12N[C@H](Cc3ccccc31)c1ccccc12 [MK-801, dizocilpine] | reduces | reduces | significantly increased |
| CCC(=O)C(C[C@H](C)N(C)C)(c1ccccc1)c1ccccc1 [esmethadone, (S)-methadone] | reduces | reduces |  |
